Measured values published in US11925624B2, “Methods of administering anti-fibrotic therapy” (GENENTECH, INC., priority 2016, dated 2024).

Assay: Serum creatinine (Scr) change from baseline, SAD study (Part A)
Type: in vivo, human
Details: for Number of subjects with change in Scr <0.3 mg/dL from baseline / Number of subjects with change in Scr ≥0.3 mg/dL from baseline / Number of subjects with percent change in Scr <30% from baseline / Number of subjects with percent change in Scr ≥30% from baseline: SAD
Procedure: In addition to the measurement of various PK parameters in both parts of the study, the changes in the subjects' serum creatinine levels were also evaluated in this study. Tables 6A and 6B summarize the change in level and percent change in serum creatinine from averaged screening and pre-dosing values for the subjects in SAD study in each treatment group, as applicable. Tables 7A and 7B summarize the change in level and percent change in scrum creatinine from averaged screening and pre-dosing values for the subjects in MAD study. […] In Part B of the study, 2 subjects (275 mg BID) experienced clinically significant TEAEs of increased creatinine on day 5. The mean change in serum creatinine from a combined screening and pre-dose baseline in the MAD part of the study is illustrated in FIG. 1. In addition, the mean change in creatinine level from combined screening and pre-dose level in the MAD part of the study is illustrated in FIG. 2.

With `Cn1cc(-c2cn(-c3ccc(OC(F)(F)F)cc3)c(=O)c3ncn(C)c23)cn1` [Compound I] the “Exposures with increases over the upper limit of normal (ULN) in serum creatinine” value (Part A (SAD), exposures of doses of 200 mg or more) was “about 21%”, the “Number of subjects with change in Scr <0.3 mg/dL from baseline” value (25 mg) was 6 and the “Number of subjects with change in Scr ≥0.3 mg/dL from baseline” value (25 mg) was 0. For the same compound, the “Number of subjects with percent change in Scr <30% from baseline” value (25 mg) was 6, the “Number of subjects with percent change in Scr ≥30% from baseline” value (25 mg) was 0 and the “Number of subjects with change in Scr <0.3 mg/dL from baseline” value (75 mg) was 6. For the same compound, the “Number of subjects with change in Scr ≥0.3 mg/dL from baseline” value (75 mg) was 0, the “Number of subjects with percent change in Scr <30% from baseline” value (75 mg) was 6 and the “Number of subjects with percent change in Scr ≥30% from baseline” value (75 mg) was 0. The “Number of subjects with change in Scr <0.3 mg/dL from baseline” value (200 mg) was 6, the “Number of subjects with change in Scr ≥0.3 mg/dL from baseline” value (200 mg) was 0 and the “Number of subjects with percent change in Scr <30% from baseline” value (200 mg) was 6. For the same compound, the “Number of subjects with percent change in Scr ≥30% from baseline” value (200 mg) was 0, the “Number of subjects with change in Scr <0.3 mg/dL from baseline” value (400 mg Fasted) was 10 and the “Number of subjects with change in Scr ≥0.3 mg/dL from baseline” value (400 mg Fasted) was 2. The “Number of subjects with percent change in Scr <30% from baseline” value (400 mg Fasted) was 9, the “Number of subjects with percent change in Scr ≥30% from baseline” value (400 mg Fasted) was 3 and the “Number of subjects with change in Scr <0.3 mg/dL from baseline” value (800 mg Fasted) was 5. The “Number of subjects with change in Scr ≥0.3 mg/dL from baseline” value (800 mg Fasted) was 1, the “Number of subjects with percent change in Scr <30% from baseline” value (800 mg Fasted) was 4 and the “Number of subjects with percent change in Scr ≥30% from baseline” value (800 mg Fasted) was 2. The “Number of subjects with change in Scr <0.3 mg/dL from baseline” value (1600 mg) was 6, the “Number of subjects with change in Scr ≥0.3 mg/dL from baseline” value (1600 mg) was 0 and the “Number of subjects with percent change in Scr <30% from baseline” value (1600 mg) was 6. For the same compound, the “Number of subjects with percent change in Scr ≥30% from baseline” value (1600 mg) was 0.
